Data on 13 compounds can be found in patent publication US10336702B2, “Pharmaceutically active compounds” (BERGENBIO ASA, priority 2015, dated 2019).

Experiment [1] addresses T1, p-Akt1 in LNCaP cells (Homo sapiens, UniProt P31749).
T1 construct: SureFire assays to detect cellular p-Akt1, p-Akt2 and p-Akt3 levels in WM115 cells (Akt2/3) and LNCaP cells (Akt1); endogenous in cells; host or cells: LNCaP (ECACC 89110211)
In words: Phospho-Akt cellular SureFire assay, p-Akt1 in LNCaP cells. Particulars: read-out: Biological Assay 2 IC50 (nM) Akt1 LNCaP. It is filed as cell-based. The gist of the method: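 Phospho-Thr308 Akt1 detected by AlphaScreen SureFire proximity beads in LNCaP lysates after 15 min compound treatment at 37 °C in 0.1% FBS medium, unstimulated, 0.3% DMSO. Cells plated at 5×10^4/well overnight; IC50 from a 4-parameter equation.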

Experiment [2] deals with T2, Akt1 (Homo sapiens, UniProt P31749).
T2 construct: unspecified tag, removed (detagged) (cleaved yes); purchased SignalChem and Proteros (Akt1); Merck Millipore (PDK1) 14-452 (PDK1); none given for Akt1
In words: Akt activation assay (PDK1-mediated activation, LANCE Ultra crosstide TR-FRET), Akt1. It is filed as biochemical. Conditions: read-out: Biological Assay 1 IC50 (nM) Akt1. The essentials: (§1)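 This TR-FRET readout (Eu-anti-phospho-crosstide antibody, 665/615 nm) measured PDK1-driven activation of Akt. Compound was first preincubated with each Akt isoform: Akt1 5 nM; Akt2 15 nM SignalChem or 5 nM Proteros; Akt3 3 nM SignalChem or 5 nM Proteros. Reactions then ran 30 min with 5 nM PDK1, lipid vesicles containing 0.55 µM PtdIns(3,4,5)P3, 100 µM ATP and 100 nM crosstide at pH 7.5, and IC50 came from a 4-parameter equation.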
On the technique in general: TR-FRET usually uses a lanthanide donor and a delayed reading to cut background.

The target in experiment [3] is T3, p-Akt3 in WM115 cells (Homo sapiens, UniProt Q9Y243).
T3 construct: SureFire assays to detect cellular p-Akt1, p-Akt2 and p-Akt3 levels in WM115 cells (Akt2/3) and LNCaP cells (Akt1); endogenous in cells; host or cells: WM115 (ECACC 91061232), insulin-stimulated
In words: Phospho-Akt cellular SureFire assay, p-Akt3 in WM115 cells. Particulars: insulin stimulated, read-out: Biological Assay 2 IC50 (nM) Akt3 WM115. It counts as cell-based. The essentials:
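pThr308-Akt3 in lysates was quantified by bead-proximity SureFire detection, pairing a phospho-specific antibody with a total Akt3 antibody. Before lysis, WM115 cells in 0.1% FBS medium were treated for 15 min at 37 °C with compound (final DMSO 0.3%), following a 10 min stimulation with 100 nM insulin. IC50 was obtained by 4-parameter fitting.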

Experiment [4] concerns the target T4, p-Akt2 in WM115 cells (Homo sapiens, UniProt P31751).
T4 construct: SureFire assays to detect cellular p-Akt1, p-Akt2 and p-Akt3 levels in WM115 cells (Akt2/3) and LNCaP cells (Akt1); endogenous in cells; host or cells: WM115 (ECACC 91061232), insulin-stimulated
In words: Phospho-Akt cellular SureFire assay, p-Akt2 in WM115 cells. Conditions: insulin stimulated, read-out: Biological Assay 2 IC50 (nM) Akt2 WM115. It counts as cell-based. The essentials: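 Readout is a bead-proximity SureFire assay pairing a pThr308 Akt antibody with a total Akt2 antibody, lysate and beads incubated 2 h plus 2 h at room temperature in the dark. Before lysis, serum-starved WM115 cells received 100 nM insulin (10 min), then test compound (15 min, 0.3% DMSO); IC50 by 4-parameter equation.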

Experiment [5] concerns the target T5, Akt3 (Homo sapiens, UniProt Q9Y243).
T5 construct: unspecified tag, removed (detagged) (cleaved yes); purchased SignalChem and Proteros (Akt3); Merck Millipore (PDK1) 14-452 (PDK1); none given for Akt3
In words: Akt activation assay (PDK1-mediated activation, LANCE Ultra crosstide TR-FRET), Akt3. It counts as biochemical. Particulars: read-out: Biological Assay 1 IC50 (nM) Akt3. The gist of the method: as §1

Experiment [6] addresses T6, Akt2 (Homo sapiens, UniProt P31751).
T6 construct: unspecified tag, removed (detagged) (cleaved yes); purchased SignalChem and Proteros (Akt2); Merck Millipore (PDK1) 14-452 (PDK1); none given for Akt2
In words: Akt activation assay (PDK1-mediated activation, LANCE Ultra crosstide TR-FRET), Akt2. It counts as biochemical. Conditions: read-out: Biological Assay 1 IC50 (nM) Akt2. The essentials: as §1

Structures are written as SMILES.

T2 sequence (P31749 whole entry): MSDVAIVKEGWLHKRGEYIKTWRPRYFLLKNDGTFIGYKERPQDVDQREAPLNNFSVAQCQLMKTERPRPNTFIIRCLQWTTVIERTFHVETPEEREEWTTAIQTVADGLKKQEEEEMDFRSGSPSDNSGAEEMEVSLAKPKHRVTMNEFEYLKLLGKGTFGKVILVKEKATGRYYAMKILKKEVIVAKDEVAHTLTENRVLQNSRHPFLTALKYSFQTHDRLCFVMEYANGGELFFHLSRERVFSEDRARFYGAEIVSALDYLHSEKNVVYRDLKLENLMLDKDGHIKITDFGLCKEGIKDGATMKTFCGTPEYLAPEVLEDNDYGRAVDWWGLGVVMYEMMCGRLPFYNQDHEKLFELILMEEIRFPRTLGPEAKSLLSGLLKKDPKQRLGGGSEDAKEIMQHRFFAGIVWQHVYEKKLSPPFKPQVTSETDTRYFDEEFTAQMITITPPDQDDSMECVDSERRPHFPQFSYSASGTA
T1 sequence (P31749 whole entry): as above
T6 sequence (P31751 whole entry): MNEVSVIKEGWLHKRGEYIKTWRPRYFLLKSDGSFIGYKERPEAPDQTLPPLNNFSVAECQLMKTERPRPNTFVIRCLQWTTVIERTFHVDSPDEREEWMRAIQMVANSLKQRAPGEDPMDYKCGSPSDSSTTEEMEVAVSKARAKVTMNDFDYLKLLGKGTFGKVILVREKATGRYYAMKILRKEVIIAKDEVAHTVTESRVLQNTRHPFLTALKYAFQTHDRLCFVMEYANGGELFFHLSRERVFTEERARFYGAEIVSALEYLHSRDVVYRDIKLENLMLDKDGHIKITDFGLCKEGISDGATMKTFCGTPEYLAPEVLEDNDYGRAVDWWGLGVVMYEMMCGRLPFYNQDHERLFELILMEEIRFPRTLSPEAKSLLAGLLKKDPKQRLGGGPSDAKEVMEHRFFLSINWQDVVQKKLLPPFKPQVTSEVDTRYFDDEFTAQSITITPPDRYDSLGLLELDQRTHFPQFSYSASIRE
T4 sequence (P31751 whole entry): as above
T3 sequence (Q9Y243 whole entry): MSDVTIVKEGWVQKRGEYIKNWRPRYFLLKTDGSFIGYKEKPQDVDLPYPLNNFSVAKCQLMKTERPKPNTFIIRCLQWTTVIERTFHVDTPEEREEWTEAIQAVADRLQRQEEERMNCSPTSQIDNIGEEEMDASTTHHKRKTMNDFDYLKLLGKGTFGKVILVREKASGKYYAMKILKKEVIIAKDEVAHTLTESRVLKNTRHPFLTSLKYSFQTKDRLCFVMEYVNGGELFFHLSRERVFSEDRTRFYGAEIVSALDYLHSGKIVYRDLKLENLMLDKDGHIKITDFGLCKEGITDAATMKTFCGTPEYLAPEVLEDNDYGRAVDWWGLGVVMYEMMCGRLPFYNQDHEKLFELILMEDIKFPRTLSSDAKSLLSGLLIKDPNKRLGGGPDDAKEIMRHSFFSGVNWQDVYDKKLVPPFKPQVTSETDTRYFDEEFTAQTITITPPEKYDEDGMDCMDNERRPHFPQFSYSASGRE
T5 sequence (Q9Y243 whole entry): as above

On to `N[C@]1(c2ccc(-c3ncc(NC(=O)C[C@H]4CC[C@H](N5CCOC5=O)CC4)cc3-c3ccccc3)cc2)C[C@@H](F)C1` [Example 78, N-(6-(4-(trans-1-amino-3-fluorocyclobutyl)phenyl)-5-phenylpyridin-3-yl)-2-(trans-4-(2-oxooxazolidin-3-yl)cyclohexyl)acetamide], for which the 50% inhibitory concentration (IC50) in experiment [1] came to 2000 nM; in experiment [2], 5900 nM; in experiment [3], 30 nM; in experiment [4], 810 nM; in experiment [5], 14 nM; in experiment [6], 230 nM.

For the compound `N[C@]1(c2ccc(-c3nnc(NC(=O)C[C@H]4CC[C@H](N5CCOC5=O)CC4)cc3-c3ccsc3)cc2)C[C@@H](F)C1` [Example 79, N-(6-(4-(trans-1-amino-3-fluorocyclobutyl)phenyl)-5-(thiophen-3-yl)pyridazin-3-yl)-2-(trans-4-(2-oxooxazolidin-3-yl)cyclohexyl)acetamide], the IC50 in experiment [1] was > 30000 nM; in experiment [2], > 30000 nM; in experiment [3], 59 nM; in experiment [4], > 30000 nM; in experiment [5], 26 nM; in experiment [6], 590 nM.

For the compound `CC(C)(N)c1ccc(-c2nnc(NC(=O)C[C@H]3CC[C@H](N4CCOC4=O)CC3)cc2-c2ccsc2)cc1` [Example 80, N-(6-(4-(2-aminopropan-2-yl)phenyl)-5-(thiophen-3-yl)pyridazin-3-yl)-2-(trans-4-(2-oxooxazolidin-3-yl)cyclohexyl)acetamide], the IC50 is > 30000 nM in experiment [1]; > 30000 nM in experiment [2]; 150 nM in experiment [3]; 18000 nM in experiment [4]; 130 nM in experiment [5]; 8900 nM in experiment [6].

`CCC(=O)N(C)[C@H]1CC[C@H](CC(=O)Nc2cc(-c3ccccc3)c(-c3ccc([C@]4(N)C[C@](C)(O)C4)cc3)cn2)CC1` [Example 82, N-(trans-4-(2-((5-(4-(trans-1-amino-3-hydroxy-3-methylcyclobutyl)phenyl)-4-phenylpyridin-2-yl)amino)-2-oxoethyl)cyclohexyl)-N-methylpropionamide]: the IC50 is 2400 nM in experiment [1]; > 19000 nM in experiment [2]; 10 nM in experiment [3]; 380 nM in experiment [4]; 6 nM in experiment [5]; 130 nM in experiment [6].

For the compound `CCC(=O)N(C)[C@H]1CC[C@H](CC(=O)Nc2cc(-c3ccccc3)c(-c3ccc([C@]4(N)C[C@](C)(O)C4)cc3)nn2)CC1` [Example 83, N-(trans-4-(2-((6-(4-(trans-1-amino-3-hydroxy-3-methylcyclobutyl)phenyl)-5-phenylpyridazin-3-yl)amino)-2-oxoethyl)cyclohexyl)-N-methylpropionamide], the half-maximal inhibitory concentration (IC50) worked out at 820 nM in experiment [1]; 2100 nM in experiment [2]; 7 nM in experiment [3]; 250 nM in experiment [4]; 4 nM in experiment [5]; 86 nM in experiment [6].

As for `COC(=O)N(C)[C@H]1CC[C@H](CC(=O)Nc2cc(-c3ccsc3)c(-c3ccc([C@]4(N)C[C@](C)(O)C4)cc3)nn2)CC1` [Example 84, Methyl (trans-4-(2-((6-(4-(trans-1-amino-3-hydroxy-3-methylcyclobutyl)phenyl)-5-(thiophen-3-yl)pyridazin-3-yl)amino)-2-oxoethyl)cyclohexyl)(methyl)carbamate], the IC50 in experiment [1] is > 19000 nM; in experiment [2], 2600 nM; in experiment [3] it was 8 nM; in experiment [4], 830 nM; in experiment [5], 5 nM; in experiment [6], 140 nM.

`COC(=O)N(C)[C@H]1CC[C@H](CC(=O)Nc2cc(-c3ccccn3)c(-c3ccc(C4(N)CCC4)cc3)cn2)CC1` [Example 86, Methyl (trans-4-(2-((5′-(4-(1-aminocyclobutyl)phenyl)-[2,4′-bipyridin]-2′-yl)amino)-2-oxoethyl)cyclohexyl)(methyl)carbamate]: the half-inhibitory concentration (IC50) in experiment [1] was > 30000 nM; in experiment [2], > 30000 nM; in experiment [3] it was 430 nM; in experiment [4], 12000 nM; in experiment [5], 480 nM; in experiment [6] it was 14000 nM.

For `CN(C(=O)C1CC1)[C@H]1CC[C@H](CC(=O)Nc2cc(-c3ccccc3)c(-c3ccc(C4(N)CC4)cc3)nn2)CC1` [Example 87, N-(trans-4-(2-((6-(4-(1-aminocyclopropyl)phenyl)-5-phenylpyridazin-3-yl)amino)-2-oxoethyl)cyclohexyl)-N-methylcyclopropanecarboxamide], the IC50 in experiment [1] is > 30000 nM; in experiment [2], > 30000 nM; in experiment [3], 130 nM; in experiment [4], 3300 nM; in experiment [5], 29 nM; in experiment [6] it was 510 nM.

Consider `CCC(=O)N(C)[C@H]1CC[C@H](CC(=O)Nc2cc(-c3ccsc3)c(-c3ccc(C(C)(C)N)cc3)nn2)CC1` [Example 88, N-(trans-4-(2-((6-(4-(2-aminopropan-2-yl)phenyl)-5-(thiophen-3-yl)pyridazin-3-yl)amino)-2-oxoethyl)cyclohexyl)-N-methylpropionamide], for which the IC50 in experiment [1] was > 30000 nM; in experiment [2], > 30000 nM; in experiment [3], 240 nM; in experiment [4], 16000 nM; in experiment [5], 64 nM; in experiment [6] it was 8600 nM.

On to `CCC(=O)N(C)[C@H]1CC[C@H](CC(=O)Nc2cc(-c3ccsc3)c(-c3ccc([C@]4(N)C[C@](C)(O)C4)cc3)nn2)CC1` [Example 91, N-(trans-4-(2-((6-(4-(trans-1-amino-3-hydroxy-3-methylcyclobutyl)phenyl)-5-(thiophen-3-yl)pyridazin-3-yl)amino)-2-oxoethyl)cyclohexyl)-N-methylpropionamide], for which the half-maximal inhibitory concentration (IC50) was 3800 nM in experiment [1]; 7000 nM in experiment [2]; 13 nM in experiment [3]; 900 nM in experiment [4]; 5 nM in experiment [5]; 160 nM in experiment [6].

`CC(=O)N(C)[C@H]1CC[C@H](CC(=O)Nc2cc(-c3ccsc3)c(-c3ccc(C4(N)CC4)c(F)c3)nn2)CC1` [Example 92, N-(6-(4-(1-aminocyclopropyl)-3-fluorophenyl)-5-(thiophen-3-yl)pyridazin-3-yl)-2-(trans-4-(N-methylacetamido)cyclohexyl)acetamide]: the concentration for half-maximal inhibition (IC50) in experiment [1] was > 30000 nM; in experiment [2], > 30000 nM; in experiment [3] it was 230 nM; in experiment [4] it was > 30000 nM; in experiment [5] it was 170 nM; in experiment [6], 14000 nM.

Turning to `CC(=O)N(C)[C@H]1CC[C@H](CC(=O)Nc2cc(-c3ccsc3)c(-c3ccc([C@]4(N)C[C@](C)(O)C4)cc3)cn2)CC1` [Example 93, N-(5-(4-(trans-1-amino-3-hydroxy-3-methylcyclobutyl)phenyl)-4-(thiophen-3-yl)pyridin-2-yl)-2-(trans-4-(N-methylacetamido)cyclohexyl)acetamide], the IC50 in experiment [1] stood at 2200 nM; in experiment [2], 3900 nM; in experiment [3], 9 nM; in experiment [4], 520 nM; in experiment [5], 10 nM; in experiment [6], 320 nM.

In the case of `CCOC(=O)N(C)[C@H]1CC[C@H](CC(=O)Nc2cnc(-c3ccc([C@]4(N)C[C@](C)(O)C4)cc3)c(-c3ccccc3)c2)CC1` [Example 97, Ethyl (4-(2-((6-(4-(trans-1-amino-3-hydroxy-3-methylcyclobutyl)phenyl)-5-phenylpyridin-3-yl)amino)-2-oxoethyl)cyclohexyl)(methyl)carbamate], the 50% inhibitory concentration (IC50) came out at 880 nM in experiment [1]; 2900 nM in experiment [2]; 6 nM in experiment [3]; 600 nM in experiment [4]; 5 nM in experiment [5]; 48 nM in experiment [6].

Usually IC50 stands for the concentration that gives 50% inhibition.
